From US11352604B2, “Method of making cardiomyocytes from human pluripotent cells” (Wisconsin Alumni Research Foundation, priority 2016, dated 2022)

Experiments:
H9-TnT-GFP hPSC-CMs = assay: cTnT-GFP reporter imaging of hPSC-CMs after NFκB inhibition; format: cell-based, human; conditions: QNZ day 3-5 concurrent with pI:C
Procedure: Antibodies: NFKappaB (Abcam) and phosphorylated IKappaB (Abcam). Antibodies were used at a dilution of 1:1000. NF-κB inhibitor: 40 nM QNZ (Selleckchem).

[1] = test system: hPSC-derived cardiac progenitors and hPSC-CMs; assay: RT-qPCR gene expression in progenitors or cardiomyocytes; format: cell-based, human
Procedure: Frozen cell pellets from progenitors or cardiomyocytes in the 19-9-11 iPS cell line were thawed and RNA isolated using RNeasy spin columns with on-column DNase treatment according to the manufacturer's instructions (Qiagen). 500 ng of isolated RNA was used as template for reverse transcription using Biorad iScript RT supermix according to the manufacturer's instructions. 2.5 ng of derived cDNA was then used as template in qPCR with Taqman® primers bearing FAM-MGB dyes for genes of interest in a 20 μL reaction with Taqman® universal PCR supermix and the manufacturer's recommended cycling conditions (Thermo Fisher Scientific).

NF-κB activation = conditions: cited from earlier work
HCN4 channel = target: T1, HCN4 channel (Homo sapiens, UniProt Q9Y3Q4); assay: Spontaneous beat rate of cardiomyocyte sheets before and after ivrabradine; format: cell-based
T1 construct: endogenous in cells; host or cells: replated progenitor-derived cardiomyocyte sheets, 19-9-11 iPS cell line
T1 sequence (Q9Y3Q4 1-1203): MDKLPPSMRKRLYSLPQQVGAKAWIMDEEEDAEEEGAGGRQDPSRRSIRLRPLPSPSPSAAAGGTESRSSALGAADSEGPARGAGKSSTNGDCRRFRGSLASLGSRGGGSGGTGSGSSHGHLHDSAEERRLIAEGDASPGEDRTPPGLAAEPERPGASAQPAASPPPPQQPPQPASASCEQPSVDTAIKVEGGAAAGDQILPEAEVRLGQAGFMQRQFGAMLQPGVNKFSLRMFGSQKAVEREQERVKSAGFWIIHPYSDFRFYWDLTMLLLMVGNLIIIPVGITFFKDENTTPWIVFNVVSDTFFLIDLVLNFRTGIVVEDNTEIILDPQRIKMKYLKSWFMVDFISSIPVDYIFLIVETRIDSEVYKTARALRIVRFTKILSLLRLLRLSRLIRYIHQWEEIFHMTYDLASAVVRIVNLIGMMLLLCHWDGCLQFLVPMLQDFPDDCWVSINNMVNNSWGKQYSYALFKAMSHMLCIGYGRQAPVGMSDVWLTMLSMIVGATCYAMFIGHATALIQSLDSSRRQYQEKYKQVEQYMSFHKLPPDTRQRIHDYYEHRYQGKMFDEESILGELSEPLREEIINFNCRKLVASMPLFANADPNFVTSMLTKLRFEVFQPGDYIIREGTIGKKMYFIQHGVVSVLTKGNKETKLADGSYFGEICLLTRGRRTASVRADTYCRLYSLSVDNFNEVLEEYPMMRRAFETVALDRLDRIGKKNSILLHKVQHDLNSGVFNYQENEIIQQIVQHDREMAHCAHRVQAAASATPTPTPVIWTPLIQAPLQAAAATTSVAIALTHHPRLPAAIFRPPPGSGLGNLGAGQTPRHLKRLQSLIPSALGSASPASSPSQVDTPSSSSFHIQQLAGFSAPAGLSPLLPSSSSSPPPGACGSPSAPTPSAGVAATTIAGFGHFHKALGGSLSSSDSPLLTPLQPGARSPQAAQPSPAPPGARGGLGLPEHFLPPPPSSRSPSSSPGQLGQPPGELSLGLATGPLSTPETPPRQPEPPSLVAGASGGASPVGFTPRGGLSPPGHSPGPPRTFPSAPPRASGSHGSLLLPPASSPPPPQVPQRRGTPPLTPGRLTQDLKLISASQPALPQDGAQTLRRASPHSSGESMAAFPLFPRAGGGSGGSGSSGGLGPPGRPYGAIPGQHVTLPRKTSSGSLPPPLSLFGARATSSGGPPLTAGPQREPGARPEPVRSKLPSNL
Procedure: (§1) For quantification of spatial regularity and graphical presentation of time averaged beating in microtissue from the H9-cTnT-GFP (FIGS. 9A, C) or 19-9-11 (FIG. 9B) cell lines, .avi video files of low-powered (2.5× magnification) fields were recorded at a resolution of 1268×720 and a frame rate of 20/second. These videos were exported into a series of sequential .tiff files using Adobe Premiere, and then analyzed in MATLAB using previously described coding algorithms (Huebsch et al., 2015). Calculations of beat rate (before and after ivrabradine, […] for 2 hours, Sigma) were performed manually in the 19-9-11 cell line and multifocal patterns in untreated progenitor-derived sheets were represented as the average rate of beating for all foci present in a field.

cTnT isoforms = assay: Top-down mass spectrometry of cTnT isoforms (adult to fetal AUC ratio); format: cell-based, human; conditions: DAPT day 3-16
Procedure: Freshly isolated CMs from the H9-cTnT-GFP (FIG. 1) or 19-9-11 (FIG. 2) hPSC cell lines were washed with Ca^2+-free DPBS and centrifuged at 1,100 g for 5 minutes (min) and the wash solvent was removed. The cells were first homogenized in 50 μl HEPES solution (25 mM HEPES, pH 7.4, 2.5 mM EDTA, 100 mM NaF, 1 mM DTT, 10 mM L-methionine, 1 mM PMSF, 1 mM Na3VO4, protease inhibitor (Abcam) and phosphatase inhibitors). The homogenates were centrifuged at 17,000 g for 20 min and the HEPES extract containing predominately cytosolic proteins was collected. The remaining pellets were homogenized in 40 μl trifluoroacetic acid (TFA) solution (1% TFA, 5 mM tris(2-carboxyethyl)phosphine, 5 mM L-methionine) and centrifuged at 17,000 g for 20 min. The TFA extract containing predominantly the sarcomeric proteins was collected. Bradford protein assays were performed to determine the protein concentration. The sarcomeric protein-enriched extracts were diluted to 100 ng/μl for Liquid chromatography (LC)-MS analysis.
500 ng of each sarcomeric protein-enriched extract was injected to a home-packed reverse phase chromatography (RPC) column (PLRP-S, 10 μm particle size, 1000 A pore size, 500 μm inner diameter, 25 cm long), and the proteins were separated with a gradient of 5-95% mobile phase B (0.1% formic acid in 50:50 acetonitrile:ethanol) (mobile phase A: 0.1% formic acid in H2O) at a constant flowrate of 12 μl/min. The eluting proteins were analyzed by a high-resolution quadrupole-time of flight (q-TOF) mass spectrometer (Impact II, Bruker Daltonics) via electrospray ionization. The mass spectra were collected at a scan rate of 0.5 Hz for all samples being analyzed. Analyses of top-down mass spectra were performed using the vender-specific software DataAnalysis 3.2 (Bruker Daltonics).
Quantification of the sarcomeric protein isoforms was performed as previously described. […] The area under curve (AUC) of the EIC of a specific protein isoform represents the abundance of the selected protein isoform. […] Relative quantification of protein isoform expression was measured by the ratio of the AUCs.

hPSC-CMs [2] = assay: Cardiomyocyte yield from dissociated and replated progenitors; format: cell-based, human; conditions: DAPT
Procedure: For dissociation of day 5 cells (for destructive analyses or live cell replating experiments), progenitors were dissociated with Versene (Thermo Fisher Scientific) for 10 minutes at 37° C., pipetted up and down 40 times, and then neutralized 1:1 v/v versene solution with “K20” medium (DMEM/F12 with 1×NEAA, 1× Glutamine, 0.1 mM (3-mercaptoethanol, and 20% Knockout Serum Replacer by volume, all Thermo Fisher Scientific). For destructive analyses, pellets were made by centrifugation at 1.1×1000 g for 5 minutes, aspiration of medium supernatant, snap-freezing in liquid nitrogen, and kept at −80° C. for until pellet lysis for DNA, protein, or RNA isolation.
For replating of progenitors and microtissue formation, after neutralization and cell counting, 0.8 million day-5 progenitors per well were spun down at 100×g as above and resuspended and plated in 1 mL K20 with 10 μM Y-27632 ROCK-inhibitor (Tocris) into Synthemax® II-SC coated 12 well plates (Corning). Media was then changed daily in 2 mL of “K2” (same formulation as K20 above, but with just 2% Knockout Serum Replacer), and changed daily. Differentiating hPSC-CMs from replated progenitors in this protocol beat by day 8 to 12.

[3] = test system: day 5 cardiac progenitor cells; assay: Propidium iodide cell cycle flow cytometry; format: cell-based, human; conditions: DAPT with pI:C, day 5
Procedure: Propidium iodide staining was performed on ethanol-fixed cells of the 19-9-11 iPS cell line with a low flow rate and linear mode fluorescence according to a previously published protocol (Darzynkiewicz and Juan, 2001).

hPSC-CMs [4] = assay: Optical action potential measurement (RH237); format: cell-based, human; conditions: DAPT day 3-16
Procedure: After hPSC-CM dissociation, day 30 to 60 lactate-purified hPSC-CMs from the 19-9-11 cell line were plated as 80 μL drops on areas of cover glass previously coated in drops of Synthemax® working solution of 80 μL (Corning) in the K20/2 dissociation and replating technique described above. After at least two days in K2 medium, the fast-equilibrating voltage-sensitive dye RH237 at 1 μM was added and live cells imaged in the cover glass in a Leica confocal microscope. Video files of individual cells were taken and filtered with the 50th FIR filter at a cutoff frequency of 128 Hz. The resulting action potentials were analyzed for rise time and voltage velocity in MATLAB. Individual cells were considered as replicates for statistical purposes and came from 4 cell preparations.

hPSC-CMs [5] = assay: Cardiomyocyte yield and purity in GiWi differentiation; format: cell-based, human; conditions: DAPT early (day 3-5 or 3-7) and extended (day 3-10 or 3-16)
Procedure: To differentiate cardiomyocytes from hPSCs, the small molecule temporal modulation of the Wnt pathway (GiWi) monolayer protocol was used essentially as previously described (Lian et al., 2012). Human embryonic or induced pluripotent stem cells were dissociated with Versene (Thermo Fisher Scientific) for 6 minutes at 37° C., pipetted up and down 40 times, counted with a hemocytometer, spun down at 100×g for 5 minutes, and resuspended and seeded for differentiation at 1.5 million cells per well in 6 well plates or 0.4 million per well in 12 well plates in mTeSR® on stem-cell verified Matrigel® (WiCell) containing 10 μM Y-27632 ROCK-inhibitor (Tocris). After four days in mTeSR® (WiCell), at which point cells grew to 100 percent confluence, medium was switched to RPMI supplemented with B27 supplement not containing insulin (Thermo Fisher Scientific) and containing 12 μM of the Wnt agonist CHIR99021 (Tocris) for exactly 24 hours. Media was then changed to RPMI supplemented with B27 not containing insulin for exactly 48 hours. Then medium was then switched at day 3 to RPMI supplemented with B27 not containing insulin and containing 5 μM IWP2 (Tocris). At day 5, media was switched to RPMI supplemented with B27 not containing insulin for two days. At day 7 and every three days afterward, medium was replaced with RPMI supplemented with B27 containing insulin (Thermo Fisher Scientific). […]

[6] = test system: hPSC-CM sheets from replated progenitors; assay: Video edge detection / beating analysis of cardiomyocyte sheets; format: cell-based, human; conditions: DAPT present day3-day20
Procedure: as §1

Nc1ccc2ncnc(NCCc3ccc(Oc4ccccc4)cc3)c2c1 [QNZ]
effect on formation of TnT-GFP positive cardiomyocyte collections after pIC treatment (H9-TnT-GFP hPSC-CMs): blocked the generation of large collections of TnT-GFP positive cardiomyocytes
effect on pI:C-increased maturation gene expression ([1]; day 20 pPSC-CM, QNZ with pI:C): reversed
inhibitory activity toward both NF-κB activation and TNF-α production (NF-κB activation): potent inhibitory activity

COc1cc2c(cc1OC)CC(=O)N(CCCN(C)C[C@H]1Cc3cc(OC)c(OC)cc31)CC2 [ivrabradine]
effect on spontaneous contractions (HCN4 channel; cardiomyocyte sheets from primed progenitors, 5 μm for 2 hours): blocked the spontaneous contractions
effect on beat rate (HCN4 channel; cardiomyocyte sheets from untreated progenitors, 5 μM for 2 hours): little effect

C[C@H](NC(=O)Cc1cc(F)cc(F)c1)C(=O)N[C@H](C(=O)OC(C)(C)C)c1ccccc1 [DAPT]
effect on protein isoform change toward adult cTnT 6 and 11 caused by pI:C (cTnT isoforms): abrogated
effect on increased yield from replated primed progenitors (hPSC-CMs [2]): blocked this increased yield
effect on increased cell cycle activity of primed progenitors [3]: blocked the increased cell cycle activity
effect on increase in optical upstroke velocity (decreased rise time) from primed progenitors (hPSC-CMs [4]): blocked only with DAPT treatment from day 3-16
effect on pI:C-increased expression of cardiomyocyte maturation genes (αMHC, cTnI, cardiac actin, ATP5a, RYR2, SERCA) ([1]; DAPT day 3-5 or day 3-16): reversed the increased expression
effect on pI:C downregulation of cardiac fibroblast genes ([1]; Notch inhibition (DAPT) with pI:C): accentuated
effect on pI:C-increased hPSC-CM yield (hPSC-CMs [5]): blocked pI:C's effect on hPSC-CM yield
contraction pattern of hPSC-CM sheets from pI:C-primed progenitors [6]: multifocal and disorganized without forming waves of contraction
